The values below come from PMC5365654, “Cyclic Boronates Inhibit All Classes of β-Lactamases” (Antimicrobial Agents and Chemotherapy, 2017).

Assay [1] relates to P. aeruginosa PA12, ST 111. Kind of assay: Broth microtiter dilution MIC, PA12. It is filed as cell-based. As to conditions: Pseudomonas aeruginosa, VIM-2 (B), read-out: MIC (mg/liter) for β-lactam. The method, then: (§1) The in vitro activity of cyclic boronate 2 was assessed using nine clinical isolates carrying multiple β-lactamases (Table 3). The isolates selected included Enterobacteriaceae (E. coli ST 131, Klebsiella pneumoniae ST 258, and Providencia stuartii) producing class A ESBLs (CTX-M-15, CTX-M-27, SHV-5, and VEB-1), serine carbapenemase (KPC-2) and metallo-carbapenemases (VIM-1 and VIM-2), plasmid-mediated AmpC (CMY-2), and/or carbapenem-hydrolyzing OXA-48-like oxacillinases (OXA-181 and OXA-232) in various combinations. The activity against carbapenemase-producing strains of Pseudomonas aeruginosa (VIM-2) and Acinetobacter baumannii (OXA-23) was also investigated. All isolates have previously undergone extensive phenotypic and genotypic characterization ([60]).
(§2) MICs were determined using commercial Sensititre GN4F panels (Thermo Scientific, UK; lot B55051) and Mueller-Hinton II cation-adjusted broth (Oxoid, UK), with and without the addition of cyclic boronate 2 at a fixed concentration of 10 μg/ml. Plates were incubated at 37°C for 18 h and MICs read by eye following the addition of alamarBlue reagent (Trek Diagnostics).

Assay [2] deals with E. coli EC114, ST 131. Kind of assay: Broth microtiter dilution MIC, EC114. It is filed as cell-based. As to conditions: Escherichia coli, TEM-1 (A), CTX-M-15 (A), OXA-1 (D), read-out: MIC (mg/liter) for β-lactam. How it is done:
as §1, §2

The test system of assay [3] is A. baumannii AB14. In words: Broth microtiter dilution MIC, AB14. The settings on record: Acinetobacter baumannii, OXA-23 (D), OXA-51 (D), read-out: MIC (mg/liter) for β-lactam. Format: cell-based. How it is done:
as §1, §2

For assay [4], the system named is E. coli EC86. In words: Broth microtiter dilution MIC, EC86. Format: cell-based. As to conditions: CTX-M-15 (A), CMY-4 (C), OXA-181 (D); for MIC: Escherichia coli. The method, then:
as §1, §2

The subject of assay [5] is E. coli EC107, ST 131. Kind of assay: Broth microtiter dilution MIC, EC107. Format: cell-based. The settings on record: Escherichia coli, CTX-M-15 (A), OXA-1 (D), read-out: MIC (mg/liter) for β-lactam. How it is done: as §1, §2
In assay [6] the test system is K. pneumoniae KP58. In words: Broth microtiter dilution MIC, KP58. The settings on record: Klebsiella pneumoniae, SHV-11 (A), VIM-4 (B), read-out: MIC (mg/liter) for β-lactam. It is filed as cell-based. How it is done: as §1, §2
In assay [7] the test system is K. pneumoniae KP15. In words: Broth microtiter dilution MIC, KP15. It is filed as cell-based. As to conditions: Klebsiella pneumoniae, TEM-1 (A), SHV-11 (A), KPC-2 (A), read-out: MIC (mg/liter) for β-lactam. The method, then: as §1, §2
In assay [8] the test system is K. pneumoniae KP41. Kind of assay: Broth microtiter dilution MIC, KP41. Format: cell-based. As to conditions: Klebsiella pneumoniae, TEM-1, SHV-1, SHV-5, SHV-11, CTX-M-15 (A), OXA-232 (D), read-out: MIC (mg/liter) for β-lactam. How it is done:
as §1, §2

For assay [9], the system named is P. stuartii PS71. Kind of assay: Broth microtiter dilution MIC, PS71. Format: cell-based. As to conditions: Providencia stuartii, TEM-1 (A), SHV-5 (A), VEB-1 (A), VIM-1 (B), read-out: MIC (mg/liter) for β-lactam. How it is done:
as §1, §2

For assay [10], the system named is E. coli EC113, ST 131. In words: Broth microtiter dilution MIC, EC113. As to conditions: Escherichia coli, CTX-M-27 (A), read-out: MIC (mg/liter) for β-lactam. It is filed as cell-based. How it is done: as §1, §2
Assay [11] has as its target T1, CTX-M-15 (Escherichia coli, UniProt Q9EXV5).
T1 construct: hexahistidine (pOPINF, 3C-cleavable) (N, cleaved yes); made in house; host or cells: E. coli BL21(DE3)
Kind of assay: FC5 fluorogenic β-lactamase inhibition assay, CTX-M-15. As to conditions: FC5 substrate, read-out: IC50, nM (mean ± SD) for CTX-M-15. Format: biochemical. An excerpt: To investigate the extent to which cyclic boronates inhibit class C β-lactamases as well as the important class A ESBL and class D carbapenemase targets, we used a fluorogenic assay ([22]) to screen the cyclic boronates, which we have found to inhibit other β-lactamases ([21]), against them. The β-lactamases used for screening included TEM-1 and CTX-M-15 (class A), the metallo-β-lactamase (MBL) from Bacillus cereus (BcII), Verona integron-encoded metallo-β-lactamase 1 (VIM-1) (class B), AmpC from P. aeruginosa (class C), and OXA-23 and OXA-48 (class D), collectively representing all classes of β-lactamase.
Inhibition assays were carried out using FC5 as a fluorogenic reporter substrate ([22]). Enzyme concentrations and buffers were the same as those employed in steady-state kinetic studies (see Table S2 in the supplemental material). […] The concentration of FC5 employed was 10 μM for TEM-1 and 5 μM for all other enzymes. […] Data at 0 min of incubation were obtained by addition of enzyme to a premixed solution of inhibitor and substrate. Residual enzyme activity was determined for a range of inhibitor concentrations. Nonlinear regression fitting of IC50 curves was carried out using a three-parameter dose-response curve in GraphPad Prism. Errors in IC50 are expressed as [σ(log IC50)/log IC50)] × IC50.
45 Steady-state kinetics studies used a Pherastar FS microplate reader with UV-STAR® 96-well,
47 black, µclear® plates (Greiner Bio-One) for FC5 (1). Buffers employed were 100 mM
48 phosphate buffer pH 7.5, 0.01% (v/v) Triton X-100 for TEM-1, CTX-M-15 and AmpC, 100 mM
49 phosphate buffer pH 7.5, 50 mM sodium bicarbonate, 0.01% Triton X-100 for OXA-23 and
51 1 µM ZnSO4, 0.01% Triton X-100 for MBL assays. Reaction progress was monitored at 298 K
53 intensity (λex = 380 nm, λem = 480 nm) for FC5 (1). Suitable enzyme concentrations for
54 kinetic analysis were determined by monitoring changes in absorbance/fluorescence for
55 enzyme concentrations between 20 nM and 20 pM.
Kinetic constants were determined using the initial rate of hydrolysis with the
57 reaction initiated through the addition of enzyme to pre-prepared substrate concentrations.
58 Substrate concentrations ranged between 400 µM and 0.4 µM. The Michaelis-Menten
59 equation was fitted to data by non-linear regression using GraphPad Prism software to
60 calculate the Michaelis-Menten constant and the limiting rate (2).

Where [12] appears, read: with cyclic boronate 2 (10 mg/liter) supplementation.
Where [13] appears, read: without cyclic boronate 2 supplementation.
The mark [14] stands for this setting: E. coli EC86, with cyclic boronate 2 (10 mg/liter) supplementation, read-out: MIC (mg/liter) for β-lactam.
[15] abbreviates: EC86, read-out: MIC (mg/liter) for β-lactam, E. coli EC86, without cyclic boronate 2 supplementation.

SMILES strings stand for the structures. Read-outs that look alike come from different tables or passages of the source.

T1 sequence (Q9EXV5 entry or part of it): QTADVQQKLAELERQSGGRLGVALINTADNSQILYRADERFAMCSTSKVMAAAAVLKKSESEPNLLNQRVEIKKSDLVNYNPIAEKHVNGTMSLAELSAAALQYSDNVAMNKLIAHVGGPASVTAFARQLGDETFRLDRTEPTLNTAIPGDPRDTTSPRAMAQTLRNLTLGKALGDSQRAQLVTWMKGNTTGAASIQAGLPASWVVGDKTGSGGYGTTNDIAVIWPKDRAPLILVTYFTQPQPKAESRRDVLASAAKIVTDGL

As to `CC1(C)S[C@@H]2[C@H](NC(=O)[C@H](N)c3ccccc3)C(=O)N2[C@H]1C(=O)O` [AMP, ampicillin], the MIC in assay [1] (setting [12]), in assay [1] (setting [13]), in [2] (setting [12]), in assay [2] (setting [13]), in assay [3] (setting [12]) and in assay [3] (setting [13]) was > 16 mg/L throughout. Moreover, the MIC in [4] (setting [14]), in assay [5] (setting [12]), in assay [5] (setting [13]), in assay [6] (setting [12]), in [6] (setting [13]) and in [7] (setting [12]) was > 16 mg/L throughout. In addition, the MIC in [7] (setting [13]) is > 16 mg/L; in [8] (setting [12]) it was > 16 mg/L; in assay [8] (setting [13]), > 16 mg/L; in assay [9] (setting [12]), > 16 mg/L; in assay [9] (setting [13]), > 16 mg/L; in assay [10] (setting [12]), ≤ 8 mg/L. Also, the MIC in assay [10] (setting [13]) is > 16 mg/L. Moreover, the “MIC (mg/liter) for β-lactam” value in assay [4] (E. coli EC86, without cyclic boronate 2 supplementation) was >16 mg/L.
On to `C[C@@H](O)[C@H]1C(=O)N2C(C(=O)O)=C(S[C@@H]3CN[C@H](C(=O)Nc4cccc(C(=O)O)c4)C3)[C@H](C)[C@H]12` [ERT, ertapenem], for which, in assay [4] (setting [14]), the MIC amounted to 4 mg/L.
Turning to `CO/N=C(\C(=O)N[C@@H]1C(=O)N2C(C(=O)O)=C(CSc3nc(=O)c(=O)[nH]n3C)CS[C@H]12)c1csc(N)n1` [CRO, ceftriaxone], the MIC in assay [1] (setting [12]) is > 32 mg/L; in [1] (setting [13]), > 32 mg/L; in assay [2] (setting [12]) it was < 0.5 mg/L; in [2] (setting [13]) it was > 32 mg/L; in assay [3] (setting [12]), > 32 mg/L; in assay [3] (setting [13]), > 32 mg/L. Further, the MIC in assay [4] (setting [15]) was > 16 mg/L; in assay [4] (setting [14]), 8 mg/L; in assay [5] (setting [12]), < 0.5 mg/L; in assay [5] (setting [13]) it was > 16 mg/L; in assay [9] (setting [12]) it was 16 mg/L; in [9] (setting [13]), > 32 mg/L. Further, the MIC in assay [10] (setting [12]) was < 0.5 mg/L; in assay [10] (setting [13]), > 32 mg/L.
Consider `CC(C)(O/N=C(\C(=O)N[C@@H]1C(=O)N2C(C(=O)[O-])=C(C[n+]3ccccc3)CS[C@H]12)c1csc(N)n1)C(=O)O` [CAZ, ceftazidime], for which the MIC in [1] (setting [12]) is > 16 mg/L; in assay [1] (setting [13]) it was > 16 mg/L; in assay [2] (setting [12]), ≤ 1 mg/L; in assay [2] (setting [13]), > 16 mg/L; in [3] (setting [12]), > 16 mg/L; in [3] (setting [13]), > 16 mg/L. Also, the MIC was > 16 mg/L in [4] (setting [15]); 8 mg/L in assay [4] (setting [14]); ≤ 1 mg/L in [5] (setting [12]); > 16 mg/L in [5] (setting [13]); 2 mg/L in [6] (setting [12]); > 16 mg/L in [6] (setting [13]). The MIC was 4 mg/L in [7] (setting [12]); > 16 mg/L in assay [7] (setting [13]); > 16 mg/L in [8] (setting [12]); > 16 mg/L in [8] (setting [13]); > 16 mg/L in [9] (setting [12]); > 16 mg/L in assay [9] (setting [13]). In addition, the MIC in assay [10] (setting [12]) is ≤ 1 mg/L; in assay [10] (setting [13]), 8 mg/L.
With `Cc1nnc(SCC2=C(C(=O)O)N3C(=O)[C@@H](NC(=O)Cn4cnnn4)[C@H]3SC2)s1` [FAZ, cefazolin], the MIC in assay [1] (setting [12]) was > 16 mg/L; in [1] (setting [13]), > 16 mg/L; in assay [2] (setting [12]) it was 8 mg/L; in assay [3] (setting [12]), > 16 mg/L; in assay [3] (setting [13]) it was > 16 mg/L; in [5] (setting [12]), 8 mg/L. Further, the MIC in [6] (setting [12]), in assay [6] (setting [13]), in assay [7] (setting [12]), in assay [7] (setting [13]), in assay [8] (setting [12]) and in assay [8] (setting [13]) was > 16 mg/L throughout. The MIC was 4 mg/L in assay [9] (setting [12]), > 16 mg/L in assay [9] (setting [13]) and 4 mg/L in assay [10] (setting [12]).
For the molecule `NC(=O)[C@@H]1CC[C@@H]2CN1C(=O)N2OS(=O)(=O)O` [Avibactam, avibactam], the IC50 in [11] (preincubation 0 min) is 9.9 ± 0.2 nM; in assay [11] (preincubation 10 min), 1.1 ± 0.1 nM; in assay [11] (preincubation 30 min), 0.4 ± 0.06 nM; in assay [11] (preincubation 60 min), 0.39 ± 0.01 nM; in assay [11] (preincubation 360 min), 6.4 ± 0.1 nM.

What is called IC50 is the concentration needed to halve the response being measured.
